One data set deals with blood lactate. The note with it: single oral dose, 4 h after administration. The procedure:
(§1) Four hours after administration of the test substances, the animals were decapitated. After deproteinization of the mixed blood with perchloric acid, glucose concentration was determined photometrically by the hexokinase method. Lactate concentration was determined photometrically with lactate dehydrogenase.

The next data set has as its system blood glucose. The note with it: single oral dose, 4 h after administration. As to the method:
as §1

Data set [1] can be described thus: in vivo. The note with it: mouse, po, single daily oral administration for 10 days, 24 hours after the last administration.
The nature of data set [2]: in vivo. The note with it: rat, po, single daily oral administration for 10 days, 24 hours after the last administration.
A further data set relates to Mouse. Particulars: single daily oral administration for 10 days, 24 hours after the last administration.
The test system of a further data set is Rat. Particulars: single daily oral administration for 10 days, 24 hours after the last administration.
The mark [3] stands for this setting: 100 μmol/kg, listed as Bis-dichloroacetate of n-butylbiguanide.
[4] abbreviates: 300 μmol/kg, listed as Bis-dichloroacetate of n-butylbiguanide.
The mark [5] stands for this setting: 1000 μmol/kg, listed as Bis-dichloroacetate of n-butylbiguanide.
[6] abbreviates: 100 μmol/kg, listed as Hydrochloride of n-butylbiguanide.
[7] abbreviates: 300 μmol/kg, listed as Hydrochloride of n-butylbiguanide.
The mark [8] stands for this setting: 1000 μmol/kg, listed as Hydrochloride of n-butylbiguanide.

Each structure is given as a SMILES string. Structures can show the parent of a compound that is named as a salt. Where two headings read alike, the source gives them in different places.

`CCCCNC(=N)NC(=N)N` [n-butylbiguanide bis-dichloroacetate, 1-butylbiguanide bis-(dichloroacetate)]: the “Blood lactate, % in controls” value with blood lactate (setting [3]) turned out to be 91 % in controls; in the data set with blood lactate (setting [4]), 100 % in controls; in the data set on blood lactate (setting [5]) it was 106 % in controls. Also, the “Blood glucose, % in controls” value with blood glucose (setting [3]) was 69 % in controls; in the data set on blood glucose (setting [4]), 62 % in controls; in the data set on blood glucose (setting [5]) it was 37 % in controls. For the same compound, the LD50 is 1130 ± 180 µmol/kg in the data set “in vivo [1]” and 1200 ± 200 µmol/kg in “in vivo [2]”.

As for `CCCCNC(=N)NC(=N)N` [n-butylbiguanide hydrochloride, 1-butylbiguanide.HCl], the “Blood lactate, % in controls” value was 123 % in controls with blood lactate (setting [6]), 114 % in controls in the data set with blood lactate (setting [7]) and 254 % in controls in the data set with blood lactate (setting [8]). Further, the “Blood glucose, % in controls” value was 76 % in controls in the data set with blood glucose (setting [6]), 68 % in controls in the data set on blood glucose (setting [7]) and 35 % in controls in the data set on blood glucose (setting [8]). Also, the LD50 in the data set on Mouse was found to be 1.37 ± 0.22 mmol/kg; with Rat, 0.66 ± 0.10 mmol/kg.

Values taken from patent US4028402A, “Biguanide salts” (Hoffmann-La Roche Inc., priority 1974, dated 1977).
